One assay has as its target T1, Ephrin type-A receptor 8 (Mus musculus, UniProt O09127).
T1 sequence (O09127 whole entry): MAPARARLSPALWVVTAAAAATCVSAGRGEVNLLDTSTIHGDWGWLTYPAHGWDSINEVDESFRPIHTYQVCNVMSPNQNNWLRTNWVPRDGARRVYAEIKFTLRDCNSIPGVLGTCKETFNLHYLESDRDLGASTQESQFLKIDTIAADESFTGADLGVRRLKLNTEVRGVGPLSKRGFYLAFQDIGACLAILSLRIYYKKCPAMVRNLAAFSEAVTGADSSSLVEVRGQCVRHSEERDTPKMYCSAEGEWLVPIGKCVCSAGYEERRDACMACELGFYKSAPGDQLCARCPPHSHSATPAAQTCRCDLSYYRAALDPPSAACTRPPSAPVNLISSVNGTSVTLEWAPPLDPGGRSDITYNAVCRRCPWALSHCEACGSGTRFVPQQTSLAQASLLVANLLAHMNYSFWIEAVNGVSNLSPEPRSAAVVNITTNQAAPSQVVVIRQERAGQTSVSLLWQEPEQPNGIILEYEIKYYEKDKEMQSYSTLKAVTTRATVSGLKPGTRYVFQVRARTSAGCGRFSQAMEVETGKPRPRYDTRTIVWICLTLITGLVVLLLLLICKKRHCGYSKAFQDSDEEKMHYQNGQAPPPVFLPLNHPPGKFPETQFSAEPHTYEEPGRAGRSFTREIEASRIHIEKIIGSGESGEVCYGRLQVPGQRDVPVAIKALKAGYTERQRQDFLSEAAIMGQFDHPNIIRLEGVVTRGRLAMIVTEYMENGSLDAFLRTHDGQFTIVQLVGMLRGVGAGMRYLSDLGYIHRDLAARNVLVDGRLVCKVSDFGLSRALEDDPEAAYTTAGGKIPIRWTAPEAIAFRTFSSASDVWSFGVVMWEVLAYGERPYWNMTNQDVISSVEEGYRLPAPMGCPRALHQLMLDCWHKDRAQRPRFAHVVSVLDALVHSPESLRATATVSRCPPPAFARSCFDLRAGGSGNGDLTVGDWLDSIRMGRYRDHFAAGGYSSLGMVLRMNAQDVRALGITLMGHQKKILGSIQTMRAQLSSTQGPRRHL
As to the kind of experiment: Displacement of biotinylated Fc-tagged ephrin-A1 from recombinant N/C-terminal 6-his tagged mouse EphA8 (Gly27 to Arg540 residues) preincubated for 1 hr followed by ephrin-A1-Fc addition and measured after 4 to 5 hrs by ELISA assay. A general note: In an ELISA, binding on a coated surface is turned into a signal by an enzyme label.

A further assay addresses T2, Ephrin type-B receptor 1 (Rattus norvegicus, UniProt P09759).
T2 sequence (P09759 whole entry): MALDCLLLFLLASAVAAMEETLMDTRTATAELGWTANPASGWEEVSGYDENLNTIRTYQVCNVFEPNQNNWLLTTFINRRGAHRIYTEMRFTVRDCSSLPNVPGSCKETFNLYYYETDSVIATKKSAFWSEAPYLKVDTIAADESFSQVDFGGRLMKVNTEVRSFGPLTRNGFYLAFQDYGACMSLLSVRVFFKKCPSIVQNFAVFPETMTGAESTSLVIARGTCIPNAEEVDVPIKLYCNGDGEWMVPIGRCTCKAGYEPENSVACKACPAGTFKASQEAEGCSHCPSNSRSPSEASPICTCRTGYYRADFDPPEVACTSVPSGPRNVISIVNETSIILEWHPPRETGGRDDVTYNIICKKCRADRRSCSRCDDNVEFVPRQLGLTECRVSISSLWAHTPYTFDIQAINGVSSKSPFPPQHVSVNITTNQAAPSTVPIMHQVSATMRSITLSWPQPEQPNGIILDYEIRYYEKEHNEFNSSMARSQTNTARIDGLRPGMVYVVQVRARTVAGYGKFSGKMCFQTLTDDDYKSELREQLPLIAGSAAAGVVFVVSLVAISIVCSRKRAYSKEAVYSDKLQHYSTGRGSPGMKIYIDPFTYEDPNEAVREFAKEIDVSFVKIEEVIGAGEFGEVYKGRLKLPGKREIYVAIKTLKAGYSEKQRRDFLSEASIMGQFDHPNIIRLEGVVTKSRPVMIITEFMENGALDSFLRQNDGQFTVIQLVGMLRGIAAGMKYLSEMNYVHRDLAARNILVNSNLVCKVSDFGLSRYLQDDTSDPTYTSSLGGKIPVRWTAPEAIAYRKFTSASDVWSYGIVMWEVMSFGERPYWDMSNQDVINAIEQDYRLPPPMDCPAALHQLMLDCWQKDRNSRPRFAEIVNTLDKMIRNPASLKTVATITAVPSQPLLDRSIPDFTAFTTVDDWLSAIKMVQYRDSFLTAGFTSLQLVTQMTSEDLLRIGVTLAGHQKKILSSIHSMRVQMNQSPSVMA
As to the kind of experiment: Displacement of biotinylated Fc-tagged ephrin-B1 from N/C-terminal recombinant rat EphB1 (Met18 to Gln538 residues) preincubated for 1 hr followed by ephrin-B1-Fc addition and measured after 4 to 5 hrs by ELISA assay.

Molecules are shown by their SMILES. Bounds are passed on as bounds.

Broadly, the IC50 is the concentration that gives 50% inhibition. In the case of `C[C@H](CCC(=O)N[C@H](CC(=O)O)Cc1cn(S(=O)(=O)c2ccccc2)c2ccccc12)[C@H]1CC[C@H]2[C@@H]3CC=C4C[C@@H](O)CC[C@]4(C)[C@H]3CC[C@]12C`, the IC50 was 5.5 µM at Ephrin type-A receptor 8 and over 30 µM on Ephrin type-B receptor 1.
In the case of `C[C@H](CCC(=O)N[C@H](CC(=O)O)Cc1cn(S(=O)(=O)c2ccc(C(F)(F)F)cc2)c2ccccc12)[C@H]1CC[C@H]2[C@@H]3CC=C4C[C@@H](O)CC[C@]4(C)[C@H]3CC[C@]12C`, the IC50 at Ephrin type-A receptor 8 is 13 µM; at Ephrin type-B receptor 1 it was over 30 µM.
Regarding `C[C@H](CCC(=O)N[C@H](CC(=O)O)Cc1c[nH]c2ccccc12)[C@H]1CC[C@H]2[C@@H]3CC=C4C[C@@H](O)CC[C@]4(C)[C@H]3CC[C@]12C`, the IC50 amounted to 1.8 µM at Ephrin type-A receptor 8 and 7.7 µM at Ephrin type-B receptor 1.

The values above are taken from ChEMBL document CHEMBL5614382, “Discovery of a new 1-(phenylsulfonyl)-1H-indole derivative targeting the EphA2 receptor with antiproliferative activity on U251 glioblastoma cell line” (Eur J Med Chem, 2024).
